Several values for one entry are separate records, joined by “and”; a condition that tells them apart may be missing. Equal entries are not always repeated.
Tests used:
[1] = Shelf life at room temperature by reverse-phase radio-HPLC; type: physicochemical
Method: The shelf life of [^61Cu]Cu-NODAGA-PSMA I&T was assessed at room temperature in the reaction solution and the injection formulation at various time points after EoS. At pre-defined time points (up to 12 h), an aliquot was analyzed by radio-HPLC. The radiochemical purity was determined by analytical reverse-phase radio-HPLC using a Macherey Nagel Nucleodur ISIS C18 (5 μm, 250×4.6 mm) column. The results indicated a stability of over 95% up to 12 hours (Table 22).

[2] = Lipophilicity log D (pH 7.4), shake-flask method; type: physicochemical; conditions: 1-octanol / PBS pH 7.4
Method: The lipophilic/hydrophilic character of [^61Cu]Cu-NODAGA-PSMA I&T was assessed by the determination of the distribution coefficient (D), expressed as log D at physiological pH (log D (pH 7.4)), between an aqueous and an organic phase following the “shake-flask” method. [^61Cu]Cu-NODAGA-PSMA I&T (1 μM) was added to a 50:50 pre-saturated mixture solution of 1-octanol and phosphate-buffered saline (PBS pH 7.4). The mixture was vortexed for 30 min and then centrifuged at 3000 rpm to achieve phase separation. Aliquots from each phase were collected and measured in a gamma counter. The distribution coefficient was calculated as the average logarithmic values of the ratio between the radioactivity in the organic and the PBS phase.

[3] = system: LNCaP cells; test: In vitro cellular uptake and internalization; type: cell-based, human; conditions: for Cell surface fraction / Internalised fraction / Total uptake: % of total applied activity
Method: The cellular uptake of [^61Cu]Cu-NODAGA-PSMA I&T was studied in vitro using intact LNCaP cells seeded overnight in 6-well plates. On the day of the experiment, the cells were washed and incubated with [^61Cu]Cu-NODAGA-PSMA I&T at different time points, either alone or in the presence of 2-PMPA (10 μM) as a blocking agent, to distinguish between specific and non-specific uptake. At each investigated time point, the medium containing the unbound (free) [^61Cu]Cu-NODAGA-PSMA I&T was removed, followed by two washing steps with ice-cold phosphate-buffered saline. The cells were then treated for 2×5 min with ice-cold glycine solution (0.05 M, pH 2.8) to detach the cell surface-bound tracer (acid released). Afterwards, the cells containing the internalized [^61Cu]Cu-NODAGA-PSMA I&T were detached with 1 M sodium hydroxide at 37° C. and collected for measurement. The specific cell surface-bound and internalized tracer was expressed as a percentage of the total applied activity after subtracting the non-specific values. The results are presented in Table 23 as a mean value (n=3±standard deviation).

[4] = Dosimetry calculations (OLINDA/EXM 1.0, extrapolated human dose)
Source text: The data from the pharmacokinetic studies (Table 26) was decay-corrected using the half-life of ^61Cu to extrapolate the human dose. Since there were no measurements of the radioactivity accumulation in red marrow, this was estimated assuming a linear relationship between the blood and the red marrow residence times. The proportionality factor used was the ratio between the red marrow mass and human blood mass. The residence time (RT) for the stomach was approximated to be equal to the RT of the stomach wall since the animals were subjected to fasting before the biodistribution experiments. The heart was emptied from blood before measurements, and it was assumed that the total measured heart uptake was associated with the heart wall.
OLINDA/EXM 1.0 was used to integrate the fitted time-activity curves and to estimate the organ and effective doses using standard human whole-body adult female and male phantom models. Since the salivary glands are PSMA-positive and the organ is not included in the phantom, the dose absorbed was calculated separately, assuming that the weight of the human salivary gland is 30 g.

For `O=C([O-])CN1CCN(CC(=O)[O-])CCN([C@H](CCC(=O)N[C@H](Cc2ccc(O)c(I)c2)C(=O)N[C@H](Cc2ccccc2)C(=O)N[C@H](CCCCNC(=O)CCCCCCC(=O)NCCCC[C@H](NC(=O)N[C@@H](CCC(=O)O)C(=O)O)C(=O)O)C(=O)O)C(=O)O)CC1.[61Cu+2]` [[^61Cu]Cu-NODAGA-PSMA I&T], the “RCP by HPLC” value ([1]; Injection formulation) was 99.0 ± 0.2%, the “RCP up to 3 h (n = 3)” value ([1]; Injection formulation) was 99.5 ± 0.2% and the “RCP up to 6 h (n = 3)” value ([1]; Injection formulation) was 99.0 ± 0.5%. For the same compound, the “RCP up to 9 h (n = 3)” value ([1]; Injection formulation) was 99.1 ± 0.5%, the “RCP up to 12 h (n = 2)” value ([1]; Injection formulation) was 99.7 ± 0.41% and the “RCP by HPLC” value ([1]; Reaction solution) was 99.4 ± 0.4%. The “RCP up to 3 h (n = 3)” value ([1]; Reaction solution) was 99.6 ± 0.2%, the “RCP up to 6 h (n = 3)” value ([1]; Reaction solution) was 99.5 ± 0.7% and the “RCP up to 9 h (n = 3)” value ([1]; Reaction solution) was 99.1 ± 0.8%. For the same compound, the “RCP up to 12 h (n = 2)” value ([1]; Reaction solution) was 99.7 ± 0.1%, the stability ([1]; up to 12 hours) was “over 95%” and the “log D (pH 7.4)” value [2] was −2.95±0.08. For the same compound, the “time over which the radiotracer was continuously internalized” value [3] was “up to 120 minutes”, the Cell surface fraction ([3]; 5 min) was 4.3 ± 0.7% and the Internalised fraction ([3]; 5 min) was 1.2 ± 0.2%. For the same compound, the Total uptake ([3]; 5 min) was 5.5 ± 0.9%, the Cell surface fraction ([3]; 15 min) was 8.2 ± 1.0% and the Internalised fraction ([3]; 15 min) was 3.9 ± 0.4%. It also gave a Total uptake ([3]; 15 min) of 12.1 ± 1.4%, a Cell surface fraction ([3]; 30 min) of 10.7 ± 1.0% and an Internalised fraction ([3]; 30 min) of 7.0 ± 1.1%. It also gave a Total uptake ([3]; 30 min) of 17.7 ± 2.1%, a Cell surface fraction ([3]; 60 min) of 10.8 ± 1.8% and an Internalised fraction ([3]; 60 min) of 11.7 ± 1.6%. It also gave a Total uptake ([3]; 60 min) of 22.5 ± 3.4%, a Cell surface fraction ([3]; 120 min) of 10.2 ± 1.8% and an Internalised fraction ([3]; 120 min) of 17.6 ± 2.8%. The Total uptake ([3]; 120 min) was 27.8 ± 4.6%, the “time of highest accumulation on the cell membrane” value ([3]; saturation of binding sites) was at most 30 min and the “Effective Dose” value ([4]; Female) was 0.0095 mSv/MBq and 9.54E−03 mSv/MBq. For the same compound, the “Total absorbed dose, Adrenals” value ([4]; Female) was 9.86E−02 mGy/MBq, the “Total absorbed dose, Brain” value ([4]; Female) was 5.59E−05 mGy/MBq and the “Total absorbed dose, Breasts” value ([4]; Female) was 1.23E−03 mGy/MBq. The “Total absorbed dose, Gallbladder Wall” value ([4]; Female) was 1.37E−02 mGy/MBq, the “Total absorbed dose, Heart Wall” value ([4]; Female) was 5.03E−03 mGy/MBq and the “Total absorbed dose, Kidneys” value ([4]; Female) was 1.00E+00 mGy/MBq. For the same compound, the “Total absorbed dose, LLI Wall” value ([4]; Female) was 3.24E−03 mGy/MBq, the “Total absorbed dose, Liver” value ([4]; Female) was 1.83E−02 mGy/MBq and the “Total absorbed dose, Lungs” value ([4]; Female) was 4.86E−03 mGy/MBq. For the same compound, the “Total absorbed dose, Muscle” value ([4]; Female) was 4.03E−03 mGy/MBq, the “Total absorbed dose, Osteogenic Cells” value ([4]; Female) was 3.93E−03 mGy/MBq and the “Total absorbed dose, Ovaries” value ([4]; Female) was 4.76E−03 mGy/MBq. For the same compound, the “Total absorbed dose, Pancreas” value ([4]; Female) was 3.18E−02 mGy/MBq, the “Total absorbed dose, Red Marrow” value ([4]; Female) was 6.94E−03 mGy/MBq and the “Total absorbed dose, Skin” value ([4]; Female) was 1.82E−03 mGy/MBq. For the same compound, the “Total absorbed dose, Small Intestine” value ([4]; Female) was 2.78E−02 mGy/MBq, the “Total absorbed dose, Spleen” value ([4]; Female) was 5.65E−02 mGy/MBq and the “Total absorbed dose, Stomach Wall” value ([4]; Female) was 1.08E−02 mGy/MBq. For the same compound, the “Total absorbed dose, Thymus” value ([4]; Female) was 1.11E−03 mGy/MBq, the “Total absorbed dose, Thyroid” value ([4]; Female) was 2.72E−04 mGy/MBq and the “Total absorbed dose, Total Body” value ([4]; Female) was 9.46E−03 mGy/MBq. The “Total absorbed dose, ULI Wall” value ([4]; Female) was 9.78E−03 mGy/MBq, the “Total absorbed dose, Urinary Bladder Wall” value ([4]; Female) was 1.60E−03 mGy/MBq and the “Total absorbed dose, Uterus” value ([4]; Female) was 3.94E−03 mGy/MBq. For the same compound, the “Effective Dose” value ([4]; Male) was 0.0142 mSv/MBq and 1.42E−02 mSv/MBq, the “Total absorbed dose, Adrenals” value ([4]; Male) was 8.39E−02 mGy/MBq and the “Total absorbed dose, Brain” value ([4]; Male) was 6.18E−05 mGy/MBq. The “Total absorbed dose, Gallbladder Wall” value ([4]; Male) was 2.30E−02 mGy/MBq, the “Total absorbed dose, Heart Wall” value ([4]; Male) was 6.94E−03 mGy/MBq and the “Total absorbed dose, Kidneys” value ([4]; Male) was 1.74E+00 mGy/MBq. The “Total absorbed dose, LLI Wall” value ([4]; Male) was 4.64E−03 mGy/MBq, the “Total absorbed dose, Liver” value ([4]; Male) was 2.51E−02 mGy/MBq and the “Total absorbed dose, Lungs” value ([4]; Male) was 6.11E−03 mGy/MBq. The “Total absorbed dose, Muscle” value ([4]; Male) was 6.00E−03 mGy/MBq, the “Total absorbed dose, Osteogenic Cells” value ([4]; Male) was 5.31E−03 mGy/MBq and the “Total absorbed dose, Pancreas” value ([4]; Male) was 4.83E−02 mGy/MBq. The “Total absorbed dose, Red Marrow” value ([4]; Male) was 1.11E−02 mGy/MBq, the “Total absorbed dose, Skin” value ([4]; Male) was 2.90E−03 mGy/MBq and the “Total absorbed dose, Small Intestine” value ([4]; Male) was 3.79E−02 mGy/MBq. The “Total absorbed dose, Spleen” value ([4]; Male) was 7.37E−02 mGy/MBq, the “Total absorbed dose, Stomach Wall” value ([4]; Male) was 1.71E−02 mGy/MBq and the “Total absorbed dose, Testes” value ([4]; Male) was 5.39E−04 mGy/MBq. For the same compound, the “Total absorbed dose, Thymus” value ([4]; Male) was 1.67E−03 mGy/MBq, the “Total absorbed dose, Thyroid” value ([4]; Male) was 4.99E−04 mGy/MBq and the “Total absorbed dose, Total Body” value ([4]; Male) was 1.38E−02 mGy/MBq. The “Total absorbed dose, ULI Wall” value ([4]; Male) was 1.43E−02 mGy/MBq, the “Total absorbed dose, Urinary Bladder Wall” value ([4]; Male) was 2.06E−03 mGy/MBq and the “absorbed dose in the kidneys” value ([4]; after injecting 100-150 MBq) was 0.17-0.26 Gy.
